Experiments:
Assay type in all cases: in vivo
Rhopalosiphum padi = experiment: Green house cup test, furrow drip treatment, Rhopalosiphum padi on corn (Example 6); conditions: insects released 10 days after seeding, counted 7 days after insect releasing, 100×(A−B)/A
Protocol: A plastic cup (diameter 7 cm) having a volume of 390 ml was filled with a soil, a furrow was formed to a depth of 3 cm from the soil surface, the formed furrow was drip-treated with each of water-diluted liquids of a thiamethoxam water soluble powder (using a 10.0% preparation, trade name: Actara Water Soluble Powder, manufactured by Syngenta Japan K.K.), an imidacloprid water dispersible granule (using a 50.0% preparation, trade name: Admire Water dispersible Granule, manufactured by Bayer CropScience K.K.) and a thiacloprid water dispersible granule (using a 30.0% preparation, trade name: Bariard Water Dispersible Granule, manufactured by Bayer CropScience K.K.) so as to achieve the application amount described in Table 6, and then seeded with corn (variety name: Pioneer 32K61, hybrid variety) at a rate of one grain per cup, and the soil on the side of the furrow was gathered together to close the furrow. Corn was grown in a usual green house.
10 days after seeding of corn, 10 insects of Rhopalosiphum padi were released in each cup. This is called a treatment section.
On the other hand, except that a chemical was not applied, corn was grown in a usual green house in the same manner as in the treatment section, and 10 insects of Rhopalosiphum padi were released. This is called a non-chemical-treatment section.
7 days after insect releasing, the number of Rhopalosiphum padi was investigated, and a preventive value was calculated using the following equation. The results are shown in Table 6. preventive value=100×(A−B)/A
A: number of insects during investigation of non-chemical-treatment section
B: number of insects during investigation of treatment section

[1] = system: Diabrotica virgifera virgifera and Agriotes lineatus; experiment: Field test, lodge rate, imidacloprid and cyprosulfamide in-furrow (Example 10); conditions: imidacloprid 120 g/ha together with cyprosulfamide 15 g/ha in-furrow spray 125 L/ha, thiuram-treated seed, 165 days after application; example in present tense
Text: A chemical fertilizer (N:P:K=15:15:15) is applied to the soil surface of a cultivated land at 300 kg/ha, and the cultivated land is then plowed. 7 days after fertilization, for suppressing generation of weeds, the soil surface of the whole cultivated land is spray-treated with a mixed liquid containing thiencarbazone-methyl and isoxaflutole, each of which being a herbicide, at 150 L/ha so that the application amounts of thiencarbazone-methyl and isoxaflutole are 9.2 g/ha and 23 g/ha, respectively. 21 days after fertilization, using a pneumatic seeder (disk furrow opener) equipped with a power sprayer, a cultivated land is ditched at intervals of 75 cm to a depth of 3 cm from the soil surface, and the furrow is seeded with corn (Zea Mays; hybrid variety). The furrow is seeded at intervals of 20 cm using, as a seed of corn, one treated with thiuram. A seeding density of corn is 70000 seeds/ha. […] 165 days after application of the aqueous suspension of imidacloprid, the number of plants of corn lodged due to damage by Diabrotica virgifera virgifera and Agriotes lineatus in the furrows of the treatment section and the non-treatment section, for which the number of plants of corn germinated is investigated, is investigated, a lodge rate is calculated in accordance with the following equation, and then an average lodge rate for the four investigation sections is determined.

[2] = system: Diabrotica virgifera virgifera and Agriotes lineatus; experiment: Field test, lodge rate, imidacloprid in-furrow, herbicides plus cyprosulfamide on soil (Example 8); conditions: imidacloprid 120 g/ha in-furrow spray 125 L/ha, thiuram-treated seed, 165 days after application; example in present tense
Text: A chemical fertilizer (N:P:K=15:15:15) is applied to the soil surface of a cultivated land at 300 kg/ha, and the cultivated land is then plowed. 7 days after fertilization, for suppressing generation of weeds, the soil surface of the whole cultivated land is spray-treated with a mixed liquid containing thiencarbazone-methyl and isoxaflutole, each of which being a herbicide, and cyprosulfamide which is a safener at 150 L/ha so that the application amounts of thiencarbazone-methyl, isoxaflutole and cyprosulfamide are 9.2 g/ha, 23 g/ha and 15 g/ha, respectively. 21 days after fertilization, using a pneumatic seeder (disk furrow opener) equipped with a power sprayer, a cultivated land is ditched at intervals of 75 cm to a depth of 3 cm from the soil surface, and the furrow is seeded with corn (Zea Mays; hybrid variety). […] 165 days after application of the aqueous suspension of imidacloprid, the number of plants of corn lodged due to damage by Diabrotica virgifera virgifera and Agriotes lineatus in the furrows of the treatment section and the non-treatment section, for which the number of plants of corn germinated is investigated, is investigated, a lodge rate is calculated in accordance with the following equation, and then an average lodge rate for the four investigation sections is determined.

Compound	Preventive value (Rhopalosiphum padi; application amount 20 g/ha)	Preventive value (Rhopalosiphum padi; application amount 200 g/ha)	Lodge rate compared to non-treatment section [1]	Lodge rate compared to non-treatment section [2]
O=[N+]([O-])NC1=NCCN1Cc1ccc(Cl)nc1 [Imidacloprid]	100	100	low lodge rate as compared to the non-treatment section	low lodge rate as compared to the non-treatment section
N#C/N=C1\SCCN1Cc1ccc(Cl)nc1 [Thiacloprid]	100	100		
CN1COCN(Cc2cnc(Cl)s2)/C1=N\[N+](=O)[O-] [Thiamethoxam]	100	100		

Source: patent publication US9265189B2, “Method for reducing damage by harmful organisms in corn cultivation” (SUMITOMO CHEMICAL COMPANY, LIMITED, priority 2012, dated 2016)
